Data on 64 compounds can be found in PubChem BioAssay AID812 (SRMLSC, 2007).

The source made the active and inactive calls. No rule for the calls is given here.

This assay concerns Saccharomyces cerevisiae lifespan extension, no nicotinamide. Description: yeast lifespan extension without nicotinamide, confirmation, yeast lifespan extension project, S. cerevisiae (AID 812).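 Also: growth read as optical density after 42 hours of incubation at 30C.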

Take `N#CSCC(=O)N1c2ccccc2CCc2ccccc21`: the EC50 (in general, the concentration at which the effect is half-maximal) is > 40 µM (inactive).

Consider `O=C1c2ccccc2C(=O)N1c1ncc(Cc2ccc(Cl)cc2)s1`, for which the EC50 is > 40 µM (inactive).

In the case of `Cc1ccnc(SCc2cc(=O)c(OC(=O)c3ccco3)co2)n1`, the EC50 is > 40 µM (inactive).

Regarding `CCCn1[nH]cc(SC)c(=O)c1=O`, the EC50 is > 40 µM (inactive).

Turning to `CCOc1ccc(OCC(=O)c2c(O)c3ccccc3oc2=O)cc1`, the EC50 is > 40 µM (inactive).

For `CC(C)CN=C(NS(=O)(=O)c1ccccc1)C(Cl)(Cl)Cl`, the EC50 is > 40 µM (inactive).

On to `Cc1cc(N2C(=O)CC(Cc3ccccc3)C2=O)no1` (centres undefined), for which the EC50 is > 40 µM (inactive).

Turning to `CCSc1nnc(NC(=O)C2(C)Cc3ccccc3C(=O)O2)s1` (centres undefined), the EC50 was > 40 µM (inactive).

Regarding `CC(=O)Oc1ccccc1N1C(=O)c2ccc(C(=O)O)cc2C1=O`, the EC50 is > 40 µM (inactive).

Take `O=[N+]([O-])c1cc(S(=O)(=O)N2CCCCCC2)ccc1F`: the EC50 is > 40 µM (inactive).

`COCCCN(C(=S)Nc1cc(Cl)cc(Cl)c1)C(C)c1ccncc1` (centres undefined): the EC50 was > 40 µM (inactive).

Regarding `CCSc1nnc(NC(=O)CSc2nc(C)cc(C)n2)s1`, the EC50 is > 40 µM (inactive).

As for `Cc1cc(C)cc(CC2CC(=O)N(c3ccc(Cl)cn3)C2=O)c1` (centres undefined), the EC50 is > 40 µM (inactive).

As for `O=C(NC(=S)NNS(=O)(=O)c1ccccc1)c1ccc([N+](=O)[O-])cc1`, the EC50 is > 40 µM (inactive).

In the case of `COc1ccc(/C=C/C(=O)C2C(=O)C=C(C)OC2=O)cc1O` (centres undefined), the EC50 is > 40 µM (inactive).

`CCCCCC(=O)N1CCN(CCN=CC2=C(O)CC(c3ccc(OC)c(OC)c3)CC2=O)CC1` (centres undefined): the EC50 was > 40 µM (inactive).

As for `COc1ccc(NC(=O)/C(Cl)=C(/Cl)S(=O)Cc2ccc(C)cc2)cn1` (centres undefined), the EC50 is > 40 µM (inactive).

`CCCC(=Nc1ccccc1)C1=C(O)C(C(=O)OC)C(C)(C)CC1=O` (centres undefined): the EC50 was > 40 µM (inactive).

On to `CC(C)c1ccc2occ(-c3nn[nH]n3)c(=O)c2c1`, for which the EC50 is > 40 µM (inactive).

Consider `CCCCOC(=O)CSc1nc2c(c(=O)[nH]c(=O)n2C)n1C/C=C(\C)Cl`, for which the EC50 is > 40 µM (inactive).

As to `CCCC(=Nc1ccccc1OC)C1=C(O)CC(c2ccccc2)CC1=O` (centres undefined), the EC50 was > 40 µM (inactive).

As to `CCOC(=O)c1[nH]nc(C(=O)c2ccc(Br)cc2)c1O`, the EC50 was > 40 µM (inactive).

With `N#C/C(=C\c1ccccc1)C(=O)N(c1ccccn1)C1CCCCC1`, the EC50 is > 40 µM (inactive).

With `CCc1ccc(C(=O)CN2C(=O)NC(C)(CCc3ccccc3)C2=O)cc1` (centres undefined), the EC50 is > 40 µM (inactive).

As to `CCCCCCCC(=O)N/N=C(/C)c1c(O)cc(C)oc1=O`, the EC50 is > 40 µM (inactive).

With `O=C1Nc2ccccc2C12OCC1(CO2)COC2(OC1)C(=O)Nc1ccccc12` (centres undefined), the EC50 is > 40 µM (inactive).

Regarding `COc1ccc(O)c(C(=O)c2cc(C#N)c(=O)n(CC3CCCO3)c2)c1` (centres undefined), the EC50 is > 40 µM (inactive).

Regarding `CCSc1ccccc1C(=O)n1nnc2ccccc21`, the EC50 is > 40 µM (inactive).

With `CC1C/C(=C\c2cccnc2)C(=O)/C(=C/c2cccnc2)C1` (centres undefined), the EC50 was > 40 µM (inactive).

`CC1=NN(Cc2ccccc2)C(=O)C1C(c1ccccc1)C(C#N)C#N` (centres undefined): the EC50 is > 40 µM (inactive).

Regarding `Cc1[nH]nc2nc3c(c(OC(=O)c4ccccc4)c12)c(=O)n(C)c(=O)n3C`, the EC50 was > 40 µM (inactive).

On to `Cc1ccc(OCC(=O)c2c(O)c3ccccc3oc2=O)cc1C`, for which the EC50 is > 40 µM (inactive).

On to `CC(=O)Nc1nc(C)c(Oc2ccccc2)c(=O)[nH]1`, for which the EC50 is > 40 µM (inactive).

For `CCn1ccc(C(=O)Nc2ccc(S(=O)(=O)Nc3ccccc3OC)cc2)n1`, the EC50 is > 40 µM (inactive).

As for `O=C(O)Cc1ccc(N=Cc2c(O)ccc3ccccc23)cc1`, the EC50 was > 40 µM (inactive).

In the case of `CC(=O)c1c(O)cc2n(c1=O)-c1ccc(Cl)cc1C2(C)C`, the EC50 was > 40 µM (inactive).

`COc1ccccc1-c1c(C)oc2cc(OC(=O)c3ccco3)ccc2c1=O`: the EC50 was > 40 µM (inactive).

For the compound `CC(=O)Oc1ccc(N(C(C)=O)S(=O)(=O)c2ccc(C)c([N+](=O)[O-])c2)cc1`, the EC50 is > 40 µM (inactive).

On to `C=CS(=O)(=O)c1ccc(Oc2ccc(S(=O)(=O)C=C)cc2)cc1`, for which the EC50 is > 40 µM (inactive).

Take `CCc1c(C)c(C#N)c2nc3ccccc3n2c1Cl`: the EC50 was > 40 µM (inactive).

For `Cc1cc(C)c(S(=O)(=O)c2ccccc2)c(OC(=O)c2ccc(Cl)cc2Cl)n1`, the EC50 was > 40 µM (inactive).

Turning to `CCn1cc(C(=O)O)c(=O)c2ccc(C)nc21`, the EC50 is > 40 µM (inactive).

As for `CC1Cc2ccccc2N1C(=O)Cn1cnc2ccccc2c1=O` (centres undefined), the EC50 was > 40 µM (inactive).

On to `CC(C)c1noc2ncc(C(=O)c3cc(Cl)cc(Cl)c3O)cc12`, for which the EC50 was > 40 µM (inactive).

On to `Cc1ccc(C(=O)/C=C\C(=O)c2ccc(C)cc2)cc1`, for which the EC50 is > 40 µM (inactive).

For `COC(=O)C1=C(C(=O)OC)C(c2ccccc2O)c2sc(=O)[nH]c2S1` (centres undefined), the EC50 was > 40 µM (inactive).

Regarding `C=CCn1c(-c2ccc(OC)cc2)csc1=Nc1c(C)n(C)n(-c2ccccc2)c1=O`, the EC50 is > 40 µM (inactive).

For `CC(=O)C(C(C)=O)c1c(Cl)c(O)c(O)c2c(C(=O)c3ccccc3)coc12`, the EC50 is > 40 µM (inactive).

For `CN(C)c1ccc(S(=O)(=O)c2ccc(Cl)cc2)cc1`, the EC50 was > 40 µM (inactive).

Turning to `O=C(NC(=S)Nc1nc2c(s1)CSc1ccccc1-2)c1ccccc1`, the EC50 was > 40 µM (inactive).

Turning to `CC(=O)Nc1c(O)nc(SCc2ccccc2C#N)[nH]c1=O`, the EC50 was > 40 µM (inactive).

With `CC1=CS(=O)(=O)CC1Sc1nc2ccccc2[nH]1` (centres undefined), the EC50 was > 40 µM (inactive).

As for `O=C(Nc1cccnc1)c1c(O)c2cccc3c2n(c1=O)CC3`, the EC50 was > 40 µM (inactive).

`CC[n+]1c(/C=C2\C=C(C)CC(C)(C)C2)sc2ccccc21`: the EC50 was > 40 µM (inactive).

For the compound `Oc1ccc(NCc2ccccc2OCc2ccccc2F)cc1`, the EC50 was > 40 µM (inactive).

Take `N#Cc1ccc(-c2ccc(OCC(=O)NCCc3ccccc3)cc2)cc1`: the EC50 was > 40 µM (inactive).

For `CCOC(=O)C1CCN(C(c2cc3ccc(C)c(C)c3[nH]c2=O)c2nnnn2C2CCCCC2)CC1` (centres undefined), the EC50 was > 40 µM (inactive).

For `O=C(/C=C/c1ccccc1)C1C(=O)c2ccccc2C1=O`, the EC50 was > 40 µM (inactive).

For `CC(C)=C1C(=O)NN(c2ccc(C)c(Cl)c2)C1=O`, the EC50 was > 40 µM (inactive).

Turning to `CCOC(=O)CC1=NN(c2ccccc2)C(=O)/C1=C\c1ccc(OC)cc1OC`, the EC50 was > 40 µM (inactive).

Regarding `C=CCn1c(C)cc(C(=O)CSc2nc3ccccc3c(=O)[nH]2)c1C`, the EC50 is > 40 µM (inactive).

Consider `CN(C)C=C1C(=O)N(C2CCCCC2)C(=O)N(C2CCCCC2)C1=O`, for which the EC50 is > 40 µM (inactive).

Turning to `O=C1NC(=O)N(CCC2=CCCCC2)C(=O)/C1=C\c1cccs1`, the EC50 was > 40 µM (inactive).

Turning to `CCCc1nc2c(c(=O)c3ccccc3n2C)c(=O)n1C1CCCCCC1`, the EC50 is > 40 µM (inactive).
